Assay [1] can be described thus: Confirmatory M tuberculosis H37Rv growth inhibition assay in glycerol free medium (AID 504898). Conditions: M. tuberculosis H37Rv growth inhibition, glycerol-free medium; at 100 µM (top of the series).
In assay [2] the test system is M. tuberculosis H37Rv growth inhibition, glycerol-free medium. The description is as above. Conditions: for IC50: measured here: M. tuberculosis growth IC50.

Molecules are shown by their SMILES. Active and inactive are the calls of the source. How the calls were made is not given here. A value given as a limit tells only on which side of the number the result lay.

With `Cc1cnc(SCC(=O)NC2CCCCC2)[nH]c1=O`, the growth inhibition in assay [1] was -3.1% (inactive).
As to `CCOC1OC(=O)C(Cl)=C1Nc1ccccc1C` (stereo not given), in assay [2], the IC90 was 5.98 µM and the IC50 is 2.98 µM.
Consider `CCCc1cc(C(N)=S)ccn1`, for which the IC50 in assay [2] is 9.61 µM. This counts as single-digit micromolar.
Regarding `CCOc1ccc(-c2cc(C)[n+](CCc3ccc(OC)c(OC)c3)c(-c3ccc(OCC)cc3)c2)cc1`, in assay [2], the IC90 is 1.45 µM and the IC50 was found to be 0.72 µM.
Regarding `Cc1cccc(-c2oc3ccc(-c4ccc5c(c4)OCO5)cc3c2C#Cc2cncn2C)c1`, in assay [2], the 90% effect concentration (IC90) was 3.02 µM and the IC50 was found to be 2.61 µM.
With `COC(=O)c1ccc(CNc2c(N3CCCC3)c(=O)c2=O)cc1`, in assay [1], the growth inhibition is 0.74% (inactive).
On to `O=C(CSc1ncccn1)NC1CCCCC1`, for which the growth inhibition in assay [1] is -3.37% (inactive).
The same measure, in the same setting: the figure for `CCOC(=O)CSc1nc(C)c(C)c(=O)[nH]1` is -0.94% (inactive).
For `CC1CCN(C(=O)C2CCN(c3nnc(-n4cccc4)s3)CC2)CC1`, in assay [2], the IC90 is 6.19 µM and the IC50 was determined as 3.03 µM.
For `COC(=O)C(Nc1nc(SCC(=O)NC2CCCCC2)nc2ccccc12)c1ccccc1` (stereo not given), in assay [1], the growth inhibition was -4.58% (inactive).
For `CN(C)C(=O)CSc1nc2ccccc2c(=O)[nH]1`, the growth inhibition in assay [1] was 4.4% (inactive).
On to `COC(=O)C(C)Oc1ccc(Cc2ncc(C(F)(F)F)cc2Cl)cc1` (stereo not given), for which, in assay [2], the IC90 is 5.62 µM and the half-maximal inhibitory concentration (IC50) came to 3.63 µM.
For `Cc1cccc(/C=C/C(=O)c2ccc([N+](=O)[O-])o2)c1`, in that order: 2.23 µM and 1.49 µM.
Consider `O=C(CSc1nccc(=O)[nH]1)NC1CCCCC1`, for which the growth inhibition in assay [1] was -5.34% (inactive).
Same read-out and setting: to `Nc1cc(=O)[nH]c(SCC(=O)NC2CCCCC2)n1` belongs 0.56% (inactive).
Take `NNC(=O)c1ccncc1`: in assay [2], the IC90 was 0.46 µM and the half-inhibitory concentration (IC50) was found to be 0.31 µM.
For `CN[C@@H]1[C@H](O[C@H]2[C@H](O[C@H]3[C@H](O)[C@@H](O)[C@H](N=C(N)N)[C@@H](O)[C@@H]3N=C(N)N)O[C@@H](C)[C@]2(O)C=O)O[C@@H](CO)[C@H](O)[C@H]1O`, in that order: 0.18 µM and 0.126 µM.
`Cc1cc(=O)[nH]c(=S)[nH]1`: in assay [1], the growth inhibition was -2.75% (inactive).
Still for that read-out and setting: to `COc1cccc(NC(=O)CSc2nc3ccccc3c(=O)[nH]2)c1` belongs -2.5% (inactive).
On the same count and under the same terms, to `CC(Sc1nc2ccccc2c(=O)[nH]1)C(=O)NC1CCCCC1` (stereo not given) belongs -1.37% (inactive).
Consider `O=C(CSc1ccccn1)NC1CCCCC1`, for which, in assay [1], the growth inhibition is 13.4% (inactive).
Same read-out and setting: to `CC1CCN(C(=O)CSc2nc3ccccc3c(=O)[nH]2)CC1` belongs -0.8% (inactive).
For the compound `Cc1ccc(NC(=O)COC(=O)CCc2c[nH]c3ccccc23)cc1[N+](=O)[O-]`, in assay [2], the IC90 is 8.51 µM and the IC50 was determined as 2.34 µM.
On to `Cc1[nH]c(=S)[nH]c(=O)c1C`, for which, in assay [1], the growth inhibition is -2.88% (inactive).
As to `O=C(CSc1nc2ccccc2c(=O)[nH]1)NC1CCCCC1`, in assay [2], the IC90 is 0.51 µM and the IC50 amounted to 0.36 µM.
With `COc1ccc(NC(=O)CSc2nc3ccccc3c(=O)[nH]2)cc1`, in assay [1], the growth inhibition is 1.8% (inactive).
Same read-out and setting: to `CCC(Sc1nc2ccccc2c(=O)[nH]1)C(=O)NC1CCCCC1` (stereo not given) belongs -0.87% (inactive).
For the compound `O=C(CSc1nc2ccccc2c(=O)[nH]1)NC1CCCC1`, in assay [2], the IC90 was 0.63 µM and the IC50 was 0.27 µM.
In the case of `Cc1cc(Br)ccc1NC(=O)c1cnc(N2CCN(c3ccccn3)CC2)c2ccccc12`, the IC50 in assay [2] was 4.32 µM.
For `Cn1c(SCC(=O)NC2CCCCC2)nc2ccccc2c1=O`, the growth inhibition in assay [1] was -3.28% (inactive).
Same read-out and setting: the figure for `O=C(CSc1nc2ccccc2c(=O)[nH]1)N1CCOCC1` is 3.26% (inactive).
On to `c1ccc(/N=C2\N=C(Nc3ccccn3)c3ccccc32)nc1`, for which, in assay [2], the IC90 is 2.52 µM and the IC50 amounted to 1.78 µM.
The corresponding values for `Nc1c(C(=O)NC2CCCCC2)nsc1C(=O)OCC(=O)NC1CCCCC1` are 52.6 µM and 6.56 µM.
For `Cc1nc(SCC(=O)NCCC(C)C)[nH]c(=O)c1C`, in that order: 13.6 µM and 9.38 µM.
On to `Cc1nc(SCC(=O)NC2CCCCC2)[nH]c(=O)c1C`, for which, in assay [2], the IC90 was 9.53 µM and the IC50 was found to be 0.13 µM.
With `CCSc1nc2ccccc2c(=O)[nH]1`, in assay [1], the growth inhibition was -0.83% (inactive).
Regarding `CNC(=O)CSc1nc2ccccc2c(=O)[nH]1`, the IC50 in assay [2] was determined as 78.2 µM. This lies in the double-digit micromolar range.
`Cc1nc(SCc2ccccc2Cl)[nH]c(=O)c1C`: in assay [1], the growth inhibition is -0.81% (inactive).
Turning to `CC(C)NC(=O)CSc1nc2ccccc2c(=O)[nH]1`, in assay [2], the IC90 was 15 µM and the IC50 was determined as 9.87 µM.
Consider `COc1c(N2CCNC(C)C2)c(F)cc2c(=O)c(C(=O)O)cn(C3CC3)c12` (stereo not given), for which, in assay [2], the IC90 was 0.14 µM and the half-inhibitory concentration (IC50) is 0.109 µM.
Consider `CN(C(=O)CSc1nc2ccccc2c(=O)[nH]1)C1CCCCC1`, for which the growth inhibition in assay [1] was 2.63% (inactive).
Consider `Cc1c[nH]c(=S)[nH]c1=O`, for which, in assay [1], the growth inhibition was -1.93% (inactive).
Same read-out and setting: to `COc1cccc(NC(=O)CSc2nc3c(c(=O)[nH]2)CCC3)c1` belongs -9.1% (inactive); to `CN1CCC(NC(=O)CSc2nc3ccccc3c(=O)[nH]2)CC1`, -4% (inactive).
In turn, `Cc1[nH]c2ccccc2c1C(=O)COC(=O)c1ccc([N+](=O)[O-])s1` gave an IC50 in assay [2] above 67.1 µM.
On to `O=c1[nH]c(=S)[nH]c2ccccc12`, for which, in assay [1], the growth inhibition is -2.86% (inactive).
The same measure, in the same setting: the figure for `CCC(Sc1nc2ccccc2c(=O)[nH]1)C(=O)Nc1cccc(OC)c1` (stereo not given) is -0.61% (inactive); for `NC(=O)CSc1nc2ccccc2c(=O)[nH]1` it is 3.58% (inactive); for `Cc1nc(SCC(N)=O)[nH]c(=O)c1C` it is 3% (inactive).
Consider `Cc1nc(SCC(=O)NC2CCCC2)[nH]c(=O)c1C`, for which, in assay [2], the IC90 was 13.8 µM and the IC50 was found to be 9.45 µM.
As for `CCSc1nc(C)c(C)c(=O)[nH]1`, the growth inhibition in assay [1] is 3.43% (inactive).
On to `O=C(CSc1nc2c(c(=O)[nH]1)CCC2)NC1CCCCC1`, for which, in assay [2], the IC90 was below 0.1 µM and the half-inhibitory concentration (IC50) was below 0.065 µM.
As to `Cc1ccc(C(=O)N/N=C(/CC(=O)c2cccs2)C(F)(F)F)cc1`, in assay [2], the IC90 is 2.9 µM and the IC50 came to 1.71 µM.
Turning to `O=c1[nH]c(SCc2ccccc2Cl)nc2c1CCCC2`, the growth inhibition in assay [1] is 0.45% (inactive).
As for `Cc1cc(C)n2nc(N)c(N=Nc3ccccc3)c2n1`, in assay [2], the IC90 was 5.84 µM and the IC50 is 4.25 µM.
With `O=C(CSc1nc2ccccc2c(=O)[nH]1)NCc1ccc(Cl)cc1`, in assay [2], the IC90 is 1.6 µM and the IC50 came out at 1.09 µM.
Consider `CC[N+](C)(CC)CCCCOc1ccc2c(c1)C(=O)c1cc(OCCCC[N+](C)(CC)CC)ccc1-2`, for which, in assay [2], the IC90 was 2.8 µM and the IC50 is 1.92 µM.
The corresponding values for `CC(C)CCNC(=O)CSc1nc2ccccc2c(=O)[nH]1` are 0.28 µM and below 0.11 µM.
For `CC(C)CCNC(=O)CSc1nc2c(c(=O)[nH]1)CCC2`, in that order: 2.02 µM and 1.37 µM.
As for `Cc1ccc(NC(=O)CSc2nc3ccccc3c(=O)[nH]2)cc1Cl`, the growth inhibition in assay [1] was -2.52% (inactive).
Consider `CC(C)N=c1cc2n(-c3ccc(Cl)cc3)c3ccccc3nc-2cc1Nc1ccc(Cl)cc1`, for which, in assay [2], the IC90 was 0.36 µM and the concentration for half-maximal inhibition (IC50) was found to be 0.067 µM.
For `Cc1nc(SCC(=O)N(C)c2ccccc2)[nH]c(=O)c1C`, in assay [1], the growth inhibition is -9.33% (inactive).
Regarding `NC[C@H]1O[C@H](O[C@H]2[C@H](O)[C@@H](O[C@H]3O[C@H](CO)[C@@H](O)[C@H](N)[C@H]3O)[C@H](N)C[C@@H]2N)[C@H](O)[C@@H](O)[C@@H]1O`, in assay [2], the IC90 was 2.42 µM and the IC50 is 1.79 µM.
On to `Cc1cc(=O)[nH]c(SCC(=O)NC2CCCCC2)n1`, for which the growth inhibition in assay [1] is -3.3% (inactive).
`O=C(CSc1nc2c(c(=O)[nH]1)CCCC2)NC1CCCCC1`: in assay [2], the IC90 is below 0.11 µM and the IC50 was below 0.057 µM.
Regarding `CCC(Sc1nc2c(c(=O)[nH]1)CCC2)C(=O)Nc1cccc(OC)c1` (stereo not given), the growth inhibition in assay [1] is -0.59% (inactive).
As to `NC(=O)c1cnccn1`, the growth inhibition in assay [1] is 3.35% (inactive).

For the origin of these results see PubChem BioAssay AID504898 (Southern Research Specialized Biocontainment Screening …, 2011).
